What all share (format): cell-based
The subject of one test is DENV2 replicon. The test can be described thus: DENV-2 Huh-7 Rep EC50 (replicon luminescence). Put shortly:
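Huh-7 cells carrying a DENV2 replicon, 5,000 cells/well, were incubated with dosed compounds for 48 h at 37° C. EnduRen live-cell substrate was added 1.5 h before luminescence reading. EC50 came from dose-response against DMSO-only wells.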

A further test concerns HRV16. As to the kind of experiment: HRV16 HeLa EC50 (cytopathic effect in H1-HeLa cells). A digest of the protocol: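 H1-HeLa cells seeded one day before, given 3-fold serial compound dilutions in triplicate just prior to infection with pre-titrated virus. Incubated 96 h at 33 °C/5% CO2; protection from cytopathic effect read as viability by CellTiter-Glo luminescence, normalised to infected untreated (0%) and uninfected (100%) controls.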

In the next test the test system is RSV strain A2. As to the kind of experiment: microbe, parasite or virus in culture. The settings on record: Table 3, HEp-2 cells, RSV A2, 4 days, read-out: RSV HEp-2 EC50. A digest of the protocol: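 Cytopathic-effect protection assay: HEp-2 cells (50,000/mL) infected with pre-titered RSV A2 onto 3-fold serial compound dilutions, incubated 4 days at 37° C. Cell viability read by CellTiter-Glo luminescence; percent inhibition derived against 0% and 100% virus-inhibition controls.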

The next test deals with RSV A2. As to the kind of experiment: RSV NHBE EC50 (RSV A2 antiviral assay in NHBE cells). To be noted: Table 3, NHBE cells, RSV A2, 4 days, read-out: RSV NHBE EC50. A digest of the protocol: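 NHBE cells (7,500/well, passage ≤6) given 3-fold serially diluted compound (0.05% DMSO final), then infected with RSV A2 at 1×10^4.5 tissue culture infectious doses/mL. After 4 days at 37 °C, viability measured by CellTiter-Glo luminescence at 25 °C.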

Where [1] appears, read: Dengue virus, DENV2, Huh-7, 48 h, read-out: DENV-2 REP Huh7 EC50.
[2] abbreviates: 96 h, Table 3; H1-HeLa cells, 96 h; read-out: HRV16 HeLa EC50.
Setting [3] is: human respiratory syncytial virus, HEp-2, 96 h.
[4] abbreviates: human respiratory syncytial virus, NHBE, 96 h.
[5] abbreviates: Table 3; H1-HeLa cells, 96 h; read-out: HRV16 HeLa EC50.
The mark [6] stands for this setting: Dengue virus, DENV2, Huh-7, 48 h, read-out: DENV-2 REP Huh7 EC50, Table 3, Huh-7 DENV2 replicon cells, 48 hours.

Consider eleven compounds from patent publication US12264173B2 (GILEAD SCIENCES, INC., priority 2020, dated 2025).

Each structure is given as a SMILES string. Like-named read-outs stand apart in the source and are kept apart here. Bounds are passed on as bounds.

With `CC(C)C(=O)O[C@H]1[C@H](c2ccc3c(N)ncnn23)O[C@](C#N)(COP(=O)(N[C@@H](C)C(=O)OCC2COC2)Oc2ccccc2)[C@H]1OC(=O)C(C)C` (stereo partly drawn) [Example 200, (2R,3S,4S,5S)-5-(4-aminopyrrolo[2,1-f][1,2,4]triazin-7-yl)-2-cyano-2-((((((S)-1-(oxetan-3-ylmethoxy)-1-oxopropan-2-yl)amino)(phenoxy)phosphoryl)oxy)methyl) tetrahydrofuran-3,4-diyl bis(2-methylpropanoate)], the concentration giving a half-maximal response (EC50) came out at 2.18 µM with DENV2 replicon (setting [1]), 0.12 µM in the test on HRV16 (setting [2]), 0.058 µM in the test on RSV strain A2 (setting [3]) and 0.012 µM with RSV A2 (setting [4]).
As for `CCC(=O)O[C@H]1[C@H](c2ccc3c(N)ncnn23)O[C@](C#N)(COP(=O)(N[C@@H](C)C(=O)OCC2COC2)Oc2ccccc2)[C@H]1OC(=O)CC` (stereo partly drawn) [Example 203, (2R,3S,4S,5S)-5-(4-aminopyrrolo[2,1-f][1,2,4]triazin-7-yl)-2-cyano-2-((((((S)-1-(oxetan-3-ylmethoxy)-1-oxopropan-2-yl)amino)(phenoxy)phosphoryl)oxy)methyl) tetrahydrofuran-3,4-diyl dipropionate], the EC50 with DENV2 replicon (setting [1]) turned out to be 9.5 µM; in the test on HRV16 (setting [2]) it was 0.359 µM; in the test on RSV strain A2 (setting [3]), 0.095 µM; in the test on RSV A2 (setting [4]), 0.038 µM.
With `C[C@H](NP(=O)(OC[C@@]1(C#N)O[C@@H](c2ccc3c(N)ncnn23)[C@H](OC(=O)C(C)(C)C)[C@@H]1OC(=O)C(C)(C)C)Oc1ccccc1)C(=O)OC1COC1` (stereo partly drawn) [Example 206, (2R,3S,4S,5S)-5-(4-aminopyrrolo[2,1-f][1,2,4]triazin-7-yl)-2-cyano-2-((((((S)-1-(oxetan-3-yloxy)-1-oxopropan-2-yl)amino)(phenoxy)phosphoryl)oxy)methyl) tetrahydrofuran-3,4-diyl bis(2,2-dimethylpropanoate)], the concentration for a half-maximal effect (EC50) with DENV2 replicon (setting [1]) came out at 7.59 µM; in the test on HRV16 (setting [2]) it was 0.308 µM; in the test with RSV strain A2 (setting [3]) it was 0.338 µM; in the test with RSV A2 (setting [4]), 0.036 µM.
On to `CCCCC(=O)O[C@H]1[C@H](c2ccc3c(N)ncnn23)O[C@](C#N)(COP(=O)(N[C@@H](C)C(=O)OCC)N[C@@H](C)C(=O)OCC)[C@H]1OC(=O)CCCC` [Example 211, (2R,3S,4S,5S)-5-(4-Aminopyrrolo[2,1-f][1,2,4]triazin-7-yl)-2-(((bis(((S)-1-ethoxy-1-oxopropan-2-yl)amino)phosphoryl)oxy)methyl)-2-cyanotetrahydrofuran-3,4-diyl dipentanoate], for which the half-maximal effective concentration (EC50) in the test with DENV2 replicon (read-out: DENV-2 REP Huh7 EC50, Table 3, Huh-7 DENV2 replicon cells, 48 hours) is 28.9 µM; with HRV16 (setting [5]), 1.97 µM; in the test on RSV strain A2 it was 0.653 µM; in the test with RSV A2, 0.946 µM.
For the compound `CCCC(=O)O[C@H]1[C@H](c2ccc3c(N)ncnn23)O[C@](C#N)(COP(=O)(N[C@@H](C)C(=O)OC)N[C@@H](C)C(=O)OC)[C@H]1OC(=O)CCC` [Example 212, (2R,3S,4S,5S)-5-(4-Aminopyrrolo[2,1-f][1,2,4]triazin-7-yl)-2-(((bis(((S)-1-methoxy-1-oxopropan-2-yl)amino)phosphoryl)oxy)methyl)-2-cyanotetrahydrofuran-3,4-diyl dibutyrate], the EC50 in the test with DENV2 replicon (setting [6]) was greater than 71.4 µM; with HRV16 (setting [2]), 6.12 µM; in the test on RSV strain A2 (setting [3]) it was 1.18 µM; with RSV A2 (setting [4]), 0.451 µM.
On the same counts, the results for `CSCCOP(=O)(N[C@@H](C)C(=O)OC(C)C)OC[C@@]1(C#N)O[C@@H](c2ccc3c(N)ncnn23)[C@H](OC(=O)C(C)C)[C@@H]1OC(=O)C(C)C` (stereo partly drawn) [Example 213, (2R,3S,4S,5S)-5-(4-aminopyrrolo[2,1-f][1,2,4]triazin-7-yl)-2-cyano-2-((((((S)-1-isopropoxy-1-oxopropan-2-yl)amino)(2-(methylthio)ethoxy)phosphoryl)oxy)methyl) tetrahydrofuran-3,4-diyl bis(2-methylpropanoate)] are 23 µM, 13.1 µM, 11.8 µM and 2.25 µM.
Taken in the same sequence, the figures for `COCCOP(=O)(N[C@@H](C)C(=O)OC(C)C)OC[C@@]1(C#N)O[C@@H](c2ccc3c(N)ncnn23)[C@H](OC(=O)C(C)C)[C@@H]1OC(=O)C(C)C` (stereo partly drawn) [Example 214, (2R,3S,4S,5S)-5-(4-aminopyrrolo[2,1-f][1,2,4]triazin-7-yl)-2-cyano-2-((((((S)-1-isopropoxy-1-oxopropan-2-yl)amino)(2-methoxyethoxy)phosphoryl)oxy)methyl) tetrahydrofuran-3,4-diyl bis(2-methylpropanoate)] were greater than 50 µM, 31.3 µM, greater than 41.7 µM and greater than 3.89 µM.
Take `CCC(=O)O[C@H]1[C@H](c2ccc3c(N)ncnn23)O[C@](C#N)(COP(=O)(N[C@@H](C)C(=O)OC(C)C)Oc2ccc(OCCOC)cc2)[C@H]1OC(=O)CC` (stereo partly drawn) [Example 215, (2R,3S,4S,5S)-5-(4-aminopyrrolo[2,1-f][1,2,4]triazin-7-yl)-2-cyano-2-((((((S)-1-isopropoxy-1-oxopropan-2-yl)amino)(4-(2-methoxyethoxy)phenoxy)phosphoryl)oxy)methyl)tetrahydrofuran-3,4-diyl dipropionate]: the EC50 is 27.2 µM in the test with DENV2 replicon (setting [1]), 1.02 µM in the test on HRV16 (setting [2]), 0.378 µM in the test on RSV strain A2 (setting [3]) and 0.142 µM in the test on RSV A2 (setting [4]).
Taken in the same sequence, the figures for `CC(C)OC(=O)[C@H](C)N[P@](=O)(OC[C@@]1(C#N)O[C@@H](c2ccc3c(N)ncnn23)[C@H](OC(=O)CN2CCOCC2)[C@@H]1OC(=O)CN1CCOCC1)Oc1ccccc1` [Example 216, (2R,3S,4S,5S)-5-(4-aminopyrrolo[2,1-f][1,2,4]triazin-7-yl)-2-cyano-2-((((S)-(((S)-1-isopropoxy-1-oxopropan-2-yl)amino)(phenoxy)phosphoryl)oxy)methyl) tetrahydrofuran-3,4-diyl bis(2-morpholinoacetate)] were 31.2 µM, 3.5 µM, 0.262 µM and 3.87 µM.
Taken in the same sequence, the figures for `CCC(=O)O[C@H]1[C@H](c2ccc3c(N)ncnn23)O[C@](C#N)(COP(=O)(N[C@@H](C)C(=O)OC(C)C)Oc2ccc(C[C@H](N)C(=O)OC)cc2)[C@H]1OC(=O)CC` (stereo partly drawn) [Example 217, (2R,3S,4S,5S)-2-((((4-((S)-2-amino-3-methoxy-3-oxopropyl)phenoxy)(((S)-1-isopropoxy-1-oxopropan-2-yl)amino)phosphoryl)oxy)methyl)-5-(4-aminopyrrolo[2,1-f][1,2,4]triazin-7-yl)-2-cyanotetrahydrofuran-3,4-diyl dipropionate] were greater than 50 µM, 11.9 µM, 9.84 µM and 2.06 µM.
On to `CC(C)C(=O)O[C@H]1[C@H](c2ccc3c(/N=C/N(C)C)ncnn23)O[C@](C#N)(COP(=O)(N[C@@H](C)C(=O)OC2CCOCC2)Oc2ccccc2)[C@H]1OC(=O)C(C)C` (stereo partly drawn) [Example 218, (2R,3S,4S,5S)-2-cyano-5-(4-(((E)-(dimethylamino)methylene)amino)pyrrolo[2,1-f][1,2,4]triazin-7-yl)-2-((((((S)-1-oxo-1-((tetrahydro-2H-pyran-4-yl)oxy)propan-2-yl)amino)(phenoxy)phosphoryl)oxy)methyl) tetrahydrofuran-3,4-diyl bis(2-methylpropanoate)], for which the half-maximal effective concentration (EC50) with DENV2 replicon (Table 3, Huh-7 DENV2 replicon cells, 48 hours, read-out: DENV-2 REP Huh7 EC50) stood at 5.51 µM; in the test on HRV16 (setting [5]), 0.112 µM; with RSV strain A2 it was 0.03 µM; with RSV A2, 0.017 µM.
